Consider 22 molecules from PubChem BioAssay AID330 (DTP/NCI, 2004).

Where “and” joins values, the source holds several entries; their conditions need not be identical. Identical values can stand only once. Inconclusive results and toxic doses are left out.

The test system of this assay is P388 leukemia ip, CD2F1 mice, survival T/C. As to the kind of experiment: NCI In Vivo Anticancer Drug Screen. Data for tumor model P388 Leukemia (intraperitoneal) in CD2F1 (CDF1) mice. The note with it: endpoint: median survival time, higher = longer survival. A digest of the protocol: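 Mice carrying the transplanted tumor received test compound or vehicle. Survival was recorded in each group, and the value is the treated-group measurement divided by that of the vehicle-treated control group.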

[1] abbreviates: dose: 50.0 mg/kg/injection, schedule: Q01DX009 (ip), vehicle: Klucel (hydroxypropylcellulose) (HPC).
[2] abbreviates: dose: 100.0 mg/kg/injection, schedule: Q01DX009 (ip), vehicle: Klucel (hydroxypropylcellulose) (HPC).
Setting [3] is: dose: 100.0 mg/kg/injection, schedule: Q04DX003 (ip), vehicle: Klucel (hydroxypropylcellulose) (HPC).
Setting [4] is: dose: 200.0 mg/kg/injection, schedule: Q01DX009 (ip), vehicle: Klucel (hydroxypropylcellulose) (HPC).
Setting [5] is: dose: 200.0 mg/kg/injection, schedule: Q04DX003 (ip), vehicle: Klucel (hydroxypropylcellulose) (HPC).
[6] abbreviates: dose: 400.0 mg/kg/injection, schedule: Q04DX003 (ip), vehicle: Klucel (hydroxypropylcellulose) (HPC).
[7] abbreviates: dose: 100.0 mg/kg/injection, schedule: Q04DX002 (ip), vehicle: saline with Tween-80.
Setting [8] is: dose: 200.0 mg/kg/injection, schedule: Q04DX002 (ip), vehicle: saline with Tween-80.
The mark [9] stands for this setting: dose: 50.0 mg/kg/injection, schedule: Q01DX005 (ip), vehicle: Klucel (hydroxypropylcellulose) (HPC).
Setting [10] is: dose: 100.0 mg/kg/injection, schedule: Q01DX005 (ip), vehicle: Klucel (hydroxypropylcellulose) (HPC).
The mark [11] stands for this setting: dose: 200.0 mg/kg/injection, schedule: Q01DX005 (ip), vehicle: Klucel (hydroxypropylcellulose) (HPC).
Where [12] appears, read: dose: 50.0 mg/kg/injection, schedule: Q01DX005 (ip), vehicle: saline with Tween-80.
The mark [13] stands for this setting: dose: 100.0 mg/kg/injection, schedule: Q01DX005 (ip), vehicle: saline with Tween-80.
The mark [14] stands for this setting: dose: 200.0 mg/kg/injection, schedule: Q01DX005 (ip), vehicle: saline with Tween-80.
[15] abbreviates: dose: 6.25 mg/kg/injection, schedule: Q01DX009 (ip), vehicle: saline with Tween-80.

Turning to `O=C(C[N+]12CN3CN(CN(C3)C1)C2)c1ccc(Cl)cc1`, the T/C (dose: 66.0 mg/kg/injection, schedule: Q04DX003 (ip), vehicle: saline sonified) is 104 % of control; the T/C (dose: 100.0 mg/kg/injection, schedule: Q04DX003 (ip), vehicle: saline sonified) is 122 % of control; the T/C (dose: 150.0 mg/kg/injection, schedule: Q04DX003 (ip), vehicle: saline sonified) was 118 % of control.
In the case of `O=C(c1ccccc1)C(c1ccccc1)C(Cl)c1ccccc1` (stereo not drawn), the T/C is 100 % of control under setting [1]; 97 % of control under setting [2]; 98 % of control under setting [3]; 99 % of control under setting [4]; 100 % of control under setting [5]; 100 % of control under setting [6].
Regarding `N=C(N)c1ccc(OCCCCOc2ccc(N)cc2)cc1`, the T/C reads like this: (dose: 60.0 mg/kg/injection, schedule: Q01DX005 (ip), vehicle: Klucel (hydroxypropylcellulose) (HPC)) 97 % of control; (dose: 120.0 mg/kg/injection, schedule: Q01DX005 (ip), vehicle: Klucel (hydroxypropylcellulose) (HPC)) 101 % of control.
In the case of `CN1c2ccccc2S(=O)(=O)n2c(Cc3ccccc3)nnc21`, the T/C by setting is: under setting [7], 92 % of control; under setting [8], 90 % of control; (dose: 400.0 mg/kg/injection, schedule: Q04DX002 (ip), vehicle: saline with Tween-80) 90 % of control.
`O=c1[nH]c2c(c(=O)n1CC(O)CO)CCCC2` (stereo not drawn): the T/C is 104 % of control (dose: 60.0 mg/kg/injection, schedule: Q01DX005 (ip), vehicle: saline with Tween-80); 100 % of control (dose: 120.0 mg/kg/injection, schedule: Q01DX005 (ip), vehicle: saline with Tween-80); 100 % of control (dose: 240.0 mg/kg/injection, schedule: Q01DX005 (ip), vehicle: saline with Tween-80).
As to `CC(C)(C)OC(=O)NC(Cc1ccc(OCc2ccccc2)cc1)C(=O)ON1C(=O)CCC1=O` (stereo not drawn), the T/C was 93 % of control under setting [9], 88 % of control under setting [10] and 100 % of control under setting [11].
Regarding `Nc1cccc(-c2nn[nH]n2)c1`, the T/C under setting [12] is 98 % of control, the T/C under setting [13] is 102 % of control and the T/C under setting [14] is 88 % of control.
As for `NC(N)=NC(N)=Nc1ccc(-c2ccc(N=C(N)N=C(N)N)cc2)cc1`, the T/C (dose: 3.13 mg/kg/injection, schedule: Q01DX009 (ip), vehicle: saline with Tween-80) is 108 % of control and the T/C under setting [15] was 106 % of control.
`Cc1[nH]n(-c2ccc(Cl)cc2)c(=O)c1N=Nc1cccc(C(F)(F)F)c1`: the T/C runs as follows: (dose: 50.0 mg/kg/injection, schedule: Q01DX009 (ip), vehicle: saline) 88 % of control; (dose: 100.0 mg/kg/injection, schedule: Q01DX009 (ip), vehicle: saline) 91 % of control; (dose: 200.0 mg/kg/injection, schedule: Q01DX009 (ip), vehicle: saline) 93 % of control.
For the molecule `CC(C)(C)c1ccc(C(=O)O)c(O)c1.CC(C)(C)c1ccc(C(=O)O)c(O)c1.[Cu]`, the T/C by setting is: (dose: 12.5 mg/kg/injection, schedule: Q04DX003 (ip), vehicle: saline) 102 % of control; (dose: 25.0 mg/kg/injection, schedule: Q04DX003 (ip), vehicle: saline) 94 % of control; (dose: 50.0 mg/kg/injection, schedule: Q04DX003 (ip), vehicle: saline) 103 % of control.
As to `O=C1Cc2nc3ccccc3nc2CC(=O)c2ccccc21`, the T/C was 90 % of control (dose: 50.0 mg/kg/injection, schedule: Q04DX002 (ip), vehicle: saline with Tween-80); 87 % of control under setting [7]; 90 % of control under setting [8].
For the molecule `CCOc1ccccc1N=Nc1c(C)nn(C(=S)SC)c1OCC`, the T/C was 91 % of control (dose: 30.0 mg/kg/injection, schedule: Q01DX005 (ip), vehicle: Klucel + Tween-80); 88 % of control and 95 % of control (dose: 60.0 mg/kg/injection, schedule: Q01DX005 (ip), vehicle: Klucel + Tween-80); 86 % of control (dose: 120.0 mg/kg/injection, schedule: Q01DX005 (ip), vehicle: Klucel + Tween-80).
Turning to `CC(=O)SC(C(=O)O)C(SC(C)=O)C(=O)O` (stereo not drawn), the T/C is 106 % of control (dose: 25.0 mg/kg/injection, schedule: Q01DX009 (ip), vehicle: other); 115 % of control (dose: 50.0 mg/kg/injection, schedule: Q01DX009 (ip), vehicle: other); 102 % of control (dose: 100.0 mg/kg/injection, schedule: Q01DX009 (ip), vehicle: other); 89 % of control (dose: 200.0 mg/kg/injection, schedule: Q01DX009 (ip), vehicle: other).
On to `NN=c1c2ccccc2oc2ccccc12`, for which the T/C is, setting by setting: under setting [1], 112 % of control; under setting [2], 115 % of control; under setting [4], 115 % of control.
In the case of `O=C(Nc1ccccc1Br)c1cccc([N+](=O)[O-])c1O`, the T/C is 107 % of control (dose: 50.0 mg/kg/injection, schedule: Q01DX009 (ip), vehicle: saline with Tween-80); 98 % of control (dose: 100.0 mg/kg/injection, schedule: Q01DX009 (ip), vehicle: saline with Tween-80); 97 % of control (dose: 200.0 mg/kg/injection, schedule: Q01DX009 (ip), vehicle: saline with Tween-80).
Consider `O=C1CCC2(CC1C1C=CCC1)OCCO2` (stereo not drawn), for which the T/C is 100 % of control (dose: 100.0 mg/kg/injection, schedule: Q01DX009 (ip), vehicle: saline sonified); 116 % of control (dose: 200.0 mg/kg/injection, schedule: Q01DX009 (ip), vehicle: saline sonified); 100 % of control (dose: 400.0 mg/kg/injection, schedule: Q01DX009 (ip), vehicle: saline sonified).
On to `CC(=O)C1=C(C)O/C(=C/c2cccc(Cl)c2)C1=O`, for which the T/C reads like this: (dose: 12.5 mg/kg/injection, schedule: Q01DX005 (ip), vehicle: saline with Tween-80) 107 % of control; (dose: 25.0 mg/kg/injection, schedule: Q01DX005 (ip), vehicle: saline with Tween-80) 118 % of control; under setting [12], 120 % of control and 121 % of control; under setting [13], 118 % of control; under setting [14], 119 % of control.
For the molecule `CCC1(O)CN2CCc3c([nH]c4ccccc34)C(C(=O)OC)(c3cc4c(cc3OC)N(C)C3C(O)(C(=O)OC)C(OC(C)=O)C5(CC)C=CCN6CCC43C65)CC(C2=O)C1O` (stereo not drawn), the T/C is, setting by setting: (dose: 25.0 mg/kg/injection, schedule: Q01DX001 (ip), vehicle: distilled water + Tween-80) 107 % of control; (dose: 25.0 mg/kg/injection, schedule: Q01DX001 (ip), vehicle: suspension in saline) 104 % of control; (dose: 50.0 mg/kg/injection, schedule: Q01DX001 (ip), vehicle: suspension in saline) 110 % of control; (dose: 100.0 mg/kg/injection, schedule: Q01DX001 (ip), vehicle: suspension in saline) 120 % of control; (dose: 200.0 mg/kg/injection, schedule: Q01DX001 (ip), vehicle: distilled water + Tween-80) 154 % of control.
As to `COc1cc(OC)c2c(O)c3c(=O)cc(C)oc3c(-c3c4cc(OC)cc(OC)c4c(O)c4c(=O)cc(C)oc34)c2c1`, the T/C (dose: 12.5 mg/kg/injection, schedule: Q01DX005 (ip), vehicle: Klucel (hydroxypropylcellulose) (HPC)) is 114 % of control; the T/C (dose: 25.0 mg/kg/injection, schedule: Q01DX005 (ip), vehicle: Klucel (hydroxypropylcellulose) (HPC)) is 100 % of control; the T/C under setting [9] is 96 % of control; the T/C under setting [10] is 100 % of control; the T/C under setting [11] was 90 % of control; the T/C (dose: 400.0 mg/kg/injection, schedule: Q01DX005 (ip), vehicle: Klucel (hydroxypropylcellulose) (HPC)) was 97 % of control.
In the case of `CSC(=S)S(=O)(=O)C12CC3CC(CC(C3)C1)C2`, the T/C by setting is: (dose: 6.25 mg/kg/injection, schedule: Q01DX009 (ip), vehicle: Klucel (hydroxypropylcellulose) (HPC)) 111 % of control; (dose: 25.0 mg/kg/injection, schedule: Q01DX009 (ip), vehicle: Klucel (hydroxypropylcellulose) (HPC)) 113 % of control and 114 % of control.
Regarding `O=C(O)C1CC1.[Ag]`, the T/C is, setting by setting: (dose: 3.12 mg/kg/injection, schedule: Q01DX009 (ip), vehicle: saline with Tween-80) 153 % of control; under setting [15], 97 % of control.
Turning to `C=CC(=O)OCCCCCCCCCC`, the T/C is, setting by setting: under setting [3], 101 % of control; under setting [5], 109 % of control; under setting [6], 108 % of control.
